According to patent US6914045B2, “Glycopeptide antibiotics” (Wyeth Holdings Corporation, priority 2001, dated 2005):

Assays:
Experiment in all cases: in vitro antibacterial evaluation, MIC by broth dilution
Format in all cases: cell-based
Escherichia coli = conditions: 18 hours at 35° C.
Staphylococcus sp. = conditions: broth dilution, 18 hours at 35° C.
How it was run: (§1)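 Inoculum 5×10^5 CFU/mL; concentrations 64 to 0.06 μg/mL; MIC defined as lowest inhibitory level. Conducted by broth dilution under NCCLS guidelines.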

Enterococcus sp. = conditions: broth dilution, 18 hours at 35° C.
How it was run: as §1

Streptococcus sp. = conditions: broth dilution, 18 hours at 35° C.
How it was run: as §1

MIC Escherichia coli (ATCC 25922) (Escherichia coli): >128 µg/mL
MIC Escherichia coli (GC 4559) (Escherichia coli): >128 µg/mL
MIC Escherichia coli (GC 4560) (Escherichia coli): 0.25 to 4 µg/mL
MIC Coagulase Negative Staphylococcus (GC 4547) (Staphylococcus sp.): 4 to 32 µg/mL
MIC Coagulase Negative Staphylococcus (GC 4548) (Staphylococcus sp.): 2 to 32 µg/mL
MIC Coagulase Negative Staphylococcus (GC 4549) (Staphylococcus sp.): 2 to 16 µg/mL
MIC Coagulase Negative Staphylococcus (GC 4551) (Staphylococcus sp.): 8 to 32 µg/mL
MIC Coagulase Negative Staphylococcus (GC 6257) (Staphylococcus sp.): 1 to 32 µg/mL
MIC Staphylococcus aureus (ATCC 29213) (Staphylococcus sp.): 4 to 64 µg/mL
MIC Staphylococcus aureus (GC 1131) (Staphylococcus sp.): 4 to 64 µg/mL
MIC Staphylococcus aureus (GC 3051) (Staphylococcus sp.): 4 to 64 µg/mL
MIC Staphylococcus aureus (GC 3053) (Staphylococcus sp.): 8 to 64 µg/mL
MIC Staphylococcus aureus (GC 4541) (Staphylococcus sp.): 4 to 32 µg/mL
MIC Staphylococcus aureus (GC 4542) (Staphylococcus sp.): 4 to 32 µg/mL
MIC Staphylococcus aureus (GC 4544) (Staphylococcus sp.): 4 to 64 µg/mL
MIC Staphylococcus aureus (GC 4545) (Staphylococcus sp.): 4 to 32 µg/mL
MIC Staphylococcus aureus-SMITH (GC 4543) (Staphylococcus sp.): 4 to 64 µg/mL
MIC Staphylococcus aureus (ATCC 29213) (Staphylococcus sp.; strain ATCC 29213): 4 to 64 µg/mL
MIC Staphylococcus aureus (GC 1131) (Staphylococcus sp.; strain GC 1131): 4 to 64 µg/mL
MIC Staphylococcus aureus (GC 3051) (Staphylococcus sp.; strain GC 3051): 4 to 64 µg/mL
MIC Staphylococcus aureus (GC 3053) (Staphylococcus sp.; strain GC 3053): 8 to 64 µg/mL
MIC Staphylococcus aureus (GC 4541) (Staphylococcus sp.; strain GC 4541): 4 to 32 µg/mL
MIC Staphylococcus aureus (GC 4542) (Staphylococcus sp.; strain GC 4542): 4 to 32 µg/mL
MIC Staphylococcus aureus-SMITH (GC 4543) (Staphylococcus sp.; strain GC 4543): 4 to 64 µg/mL
MIC Staphylococcus aureus (GC 4544) (Staphylococcus sp.; strain GC 4544): 4 to 64 µg/mL
MIC Staphylococcus aureus (GC 4545) (Staphylococcus sp.; strain GC 4545): 4 to 32 µg/mL
MIC Coagulase Negative Staphylococcus (GC 4547) (Staphylococcus sp.; strain GC 4547): 4 to 32 µg/mL
MIC Coagulase Negative Staphylococcus (GC 4548) (Staphylococcus sp.; strain GC 4548): 2 to 32 µg/mL
MIC Coagulase Negative Staphylococcus (GC 4549) (Staphylococcus sp.; strain GC 4549): 2 to 16 µg/mL
MIC Coagulase Negative Staphylococcus (GC 4551) (Staphylococcus sp.; strain GC 4551): 8 to 32 µg/mL
MIC Coagulase Negative Staphylococcus (GC 6257) (Staphylococcus sp.; strain GC 6257): 1 to 32 µg/mL
MIC Enterococcus avium (GC 4558) (Enterococcus sp.): 8 to 64 µg/mL
MIC Enterococcus faecalis (ATCC 29212) (Enterococcus sp.): 8 to 128 µg/mL
MIC Enterococcus faecalis (GC 2242) (Enterococcus sp.): 8 to 64 µg/mL
MIC Enterococcus faecalis (GC 2691) (Enterococcus sp.): 16 to 64 µg/mL
MIC Enterococcus faecalis (GC 3059) (Enterococcus sp.): 16 to 128 µg/mL
MIC Enterococcus faecalis (GC 4552) (Enterococcus sp.): 8 to 128 µg/mL
MIC Enterococcus faecalis (GC 4553) (Enterococcus sp.): 8 to 128 µg/mL
MIC Enterococcus faecalis (GC 4554) (Enterococcus sp.): 16 to 128 µg/mL
MIC Enterococcus faecalis (GC 6189) (Enterococcus sp.): 8 to 64 µg/mL
MIC Enterococcus faecium (GC 2243) (Enterococcus sp.): 8 to 128 µg/mL
MIC Enterococcus faecium (GC 4556) (Enterococcus sp.): 16 to 128 µg/mL
MIC Enterococcus faecium (GC 4557) (Enterococcus sp.): 4 to 16 µg/mL
MIC Enterococcus faecalis (ATCC 29212) (Enterococcus sp.; inoculum 5×10^5 CFU/mL, strain ATCC 29212): 8 to 128 µg/mL
MIC Enterococcus faecalis (GC 2242) (Enterococcus sp.; inoculum 5×10^5 CFU/mL, strain GC 2242): 8 to 64 µg/mL
MIC Enterococcus faecium (GC 2243) (Enterococcus sp.; inoculum 5×10^5 CFU/mL, strain GC 2243): 8 to 128 µg/mL
MIC Enterococcus faecalis (GC 2691) (Enterococcus sp.; inoculum 5×10^5 CFU/mL, strain GC 2691): 16 to 64 µg/mL
MIC Enterococcus faecalis (GC 3059) (Enterococcus sp.; inoculum 5×10^5 CFU/mL, strain GC 3059): 16 to 128 µg/mL
MIC Enterococcus faecalis (GC 4552) (Enterococcus sp.; inoculum 5×10^5 CFU/mL, strain GC 4552): 8 to 128 µg/mL
MIC Enterococcus faecalis (GC 4553) (Enterococcus sp.; inoculum 5×10^5 CFU/mL, strain GC 4553): 8 to 128 µg/mL
MIC Enterococcus faecalis (GC 4554) (Enterococcus sp.; inoculum 5×10^5 CFU/mL, strain GC 4554): 16 to 128 µg/mL
MIC Enterococcus faecium (GC 4556) (Enterococcus sp.; inoculum 5×10^5 CFU/mL, strain GC 4556): 16 to 128 µg/mL
MIC Enterococcus faecium (GC 4557) (Enterococcus sp.; inoculum 5×10^5 CFU/mL, strain GC 4557): 4 to 16 µg/mL
MIC Enterococcus avium (GC 4558) (Enterococcus sp.; inoculum 5×10^5 CFU/mL, strain GC 4558): 8 to 64 µg/mL
MIC Enterococcus faecalis (GC 6189) (Enterococcus sp.; inoculum 5×10^5 CFU/mL, strain GC 6189): 8 to 64 µg/mL
MIC Streptococcus agalactiae (GC 4564) (Streptococcus sp.): 1 to 8 µg/mL
MIC Streptococcus pneumoniae (ATCC 6301) (Streptococcus sp.): 0.25 to 2 µg/mL
MIC Streptococcus pneumoniae (GC 1894) (Streptococcus sp.): <0.06 to 2 µg/mL
MIC Streptococcus pneumoniae (GC 4565) (Streptococcus sp.): 0.5 to 8 µg/mL
MIC Streptococcus pyogenes (GC 4563) (Streptococcus sp.): 1 to 8 µg/mL
MIC Streptococcus pneumoniae (ATCC 6301) (Streptococcus sp.; inoculum 5×10^5 CFU/mL, strain ATCC 6301): 0.25 to 2 µg/mL
MIC Streptococcus pneumoniae (GC 1894) (Streptococcus sp.; inoculum 5×10^5 CFU/mL, strain GC 1894): <0.06 to 2 µg/mL
MIC Streptococcus pyogenes (GC 4563) (Streptococcus sp.; inoculum 5×10^5 CFU/mL, strain GC 4563): 1 to 8 µg/mL
MIC Streptococcus agalactiae (GC 4564) (Streptococcus sp.; inoculum 5×10^5 CFU/mL, strain GC 4564): 1 to 8 µg/mL
MIC Streptococcus pneumoniae (GC 4565) (Streptococcus sp.; inoculum 5×10^5 CFU/mL, strain GC 4565): 0.5 to 8 µg/mL
SMILES: CC(c1ccccc1)C1NC(=O)CNC(=O)C(CO)NC(=O)C(C(O)C2CNC(=N)N2C2OC(CO)C(O)C(O)C2O)NC(=O)C(C(O)C2CNC(=N)N2)NC(=O)C(Cc2ccc(OC3OC(CO)C(OC4OC(CO)C(O)C(O)C4OCc4ccc(OCc5ccccc5)cc4)C(O)C3O)cc2)NC1=O (stereo not drawn) [Example 231b, Cyclo[glycyl-β-methylphenylalanyl-O-[4-O-[2-O-[4-(phenylmethoxy)benzyl]hexopyranosyl]-hexopyranosyl]tyrosyl-3-(2-iminoimidazolidin-4-yl)seryl-3-(3-hexopyranosyl-2-iminoimidazolidin-4-yl)serylseryl]]
MIC Staphylococcus haemolyticus (GC 4546) (Staphylococcus sp.): 4 to 32 µg/mL
MIC Staphylococcus haemolyticus (GC 4546) (Staphylococcus sp.; strain GC 4546): 4 to 32 µg/mL
